Where a name gives a salt, the structure may show the parent alone.
What was measured:
β-lactamase TEM1 = biological target: T1, β-lactamase TEM1 (Escherichia coli, UniProt P62593); assay: β-lactamase inhibiting activity (Nitrocefin hydrolysis); type: biochemical, E. coli 250HT21
T1 construct: The β-lactamases are isolated from bacterial strains resistant to penicillins and to cephalosporins; endogenous in cells; host or cells: E. coli 250HT21 (soluble fraction of French-press lysate, 100 000 G supernatant)
T1 sequence (P62593 24-286 limits assumed): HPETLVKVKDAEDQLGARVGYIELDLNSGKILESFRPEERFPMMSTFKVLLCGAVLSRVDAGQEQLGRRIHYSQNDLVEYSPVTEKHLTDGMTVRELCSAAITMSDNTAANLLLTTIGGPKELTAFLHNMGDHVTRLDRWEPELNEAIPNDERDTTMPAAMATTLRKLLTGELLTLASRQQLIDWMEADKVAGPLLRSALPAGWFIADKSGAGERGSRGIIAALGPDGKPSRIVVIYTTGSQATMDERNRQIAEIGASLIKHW
Experimental: (§1) A. Preparation of the β-lactamases Tem˜1 and P99
(§2) The β-lactamases are isolated from bacterial strains resistant to penicillins and to cephalosporins (Tem1 and P99 are produced by E. coli 250HT21 and E. Cloacae 293HT6, respectively).
(§3) The bacteria are cultured in heart-brain broth at 37 g/l (DIFCO), at 37° C. They are harvested at the end of the exponential phase, cooled and centrifuged. The bacterial pellets are taken up in 50 mM sodium phosphate buffer pH 7.0 and again centrifuged. The bacteria are taken up in two volumes of this same buffer and lyzed by means of a French-Press kept at 4° C. After centrifugation for 1 h at 100 000 G, at 4° C., the supernatants containing the soluble fraction of the bacterial extracts are recovered and frozen at −80° C.
(§4) B. Determination of the β-lactamase Activity
(§5) The method uses, as substrate, Nitrocefin (OXOID), a chromogenic cephalosporin, whose product of hydrolysis by Beta-lactamases is red and absorbs at 485 nm. The β-lactamase activity is kinetically determined by measuring the variation in absorbance at 485 nm resulting from the hydrolysis of the substrate on a plate spectrophotometer (Spectra Max Plus from Molecular Devices). The experiments are performed at 37° C. The quantity of enzyme was normalized and the measurements are performed at the initial speed.
(§6) C. Determination of the β-lactamase Inhibiting Activity
(§7) Two measurements are carried out, without preincubation and with preincubation of the enzyme and of the inhibitor (5 min), in order to test the irreversibility of the reaction. The products are tested at 6 or 8 concentrations in duplicate. The reaction mixture contains 100 μM of Nitrocefin and 50 mM sodium phosphate buffer pH 7.0. D. Calculations of the IC50 Values
(§8) The rates of hydrolysis are measured with and without inhibitor. The concentration of inhibitor which inhibits by 50% the reaction of hydrolysis of Nitrocefin by the enzyme (IC50) is determined. The data processing is carried out with the aid of the GraFit software (Erathycus Software).

β-lactamase P99 = biological target: T2, β-lactamase P99 (Enterobacter cloacae, UniProt P05364); assay: biochemical; type: biochemical; details: 100 μM Nitrocefin, 50 mM sodium phosphate buffer pH 7.0, 37° C.
T2 construct: The β-lactamases are isolated from bacterial strains resistant to penicillins and to cephalosporins; endogenous in cells; host or cells: E. cloacae 293HT6 (soluble fraction of French-press lysate, 100 000 G supernatant)
T2 sequence (P05364 21-381): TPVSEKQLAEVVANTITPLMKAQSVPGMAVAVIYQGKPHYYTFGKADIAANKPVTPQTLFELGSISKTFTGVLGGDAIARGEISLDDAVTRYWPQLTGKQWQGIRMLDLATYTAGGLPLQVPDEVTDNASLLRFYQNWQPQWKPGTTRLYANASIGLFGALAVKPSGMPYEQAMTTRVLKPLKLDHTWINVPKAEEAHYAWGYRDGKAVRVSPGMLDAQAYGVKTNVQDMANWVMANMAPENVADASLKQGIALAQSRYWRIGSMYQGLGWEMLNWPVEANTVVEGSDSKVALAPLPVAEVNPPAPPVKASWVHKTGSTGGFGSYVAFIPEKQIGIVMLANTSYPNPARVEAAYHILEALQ
Experimental: as §1, §2, §3, §4, §5, §6, §7, §8

| Compound | IC50 (β-lactamase TEM1) | IC50 (β-lactamase P99) |
| --- | --- | --- |
| COC(=O)C1c2sc(-c3ccc(F)cc3)cc2C2CN1C(=O)N2OS(=O)(=O)O (stereo not drawn) [Example 19, Sodium Salt of Methyl Trans-2-(4-fluorophenyl)-4,5,6,8-tetrahydro-6-oxo-5-(sulfoxy)-4,7-methano-7H-thieno[2,3-e][1,3]diazepine-8-carboxylate] | 5 nM | 16 nM |
| CCOC(=O)C1c2ccc(OC(=O)Nc3ccccc3)cc2C2CN1C(=O)N2OS(=O)(=O)O (stereo not drawn) [Example 37, Sodium Salt of Ethyl Trans-1,2,3,5-tetrahydro-3-oxo-8-[[(phenylamino)carbonyl]oxy]-2-(sulfoxy)-1,4-methano-4H-2,4-benzodiazepine-5-carboxylate] | 41 nM | 21 nM |
| CC1(C)OCC(COc2ccc3c(c2)C2CN(C(=O)N2OS(=O)(=O)O)C3C(N)=O)O1 (stereo not drawn) [Example 42, Sodium Salt of trans-8-[(2,2-dimethyl-1,3-dioxolan-4-yl)methoxy]-1,2,3,5-tetrahydro-3-oxo-2-(sulfoxy)-1,4-methano-4H-2,4-benzodiazepine-5-carboxamide] | 15 nM | 44 nM |
| NC(=O)C1c2nn(-c3ccccc3)cc2C2CN1C(=O)N2OS(=O)(=O)O (stereo not drawn) [Example 45, Sodium Salt of trans-2,5,6,8-tetrahydro-6-oxo-2-phenyl-5-(sulfoxy)-4H-4,7-methanopyrazolo[3,4-e][1,3]diazepine-8-carboxamide] | 1 nM | 12 nM |
| O=C1N2Cc3c(cnn3-c3ccccc3)C(C2)N1OS(=O)(=O)O (stereo not shown) [Example 46, Sodium Salt of 1,4,5,8-tetrahydro-1-phenyl-5-(sulfoxy)-6H-4,7-methanopyrazolo[3,4-e][1,3]diazepin-6-one] | 5 nM | 80 nM |

Source: patent US7439253B2, “Heterocyclic compounds, their preparation and their use as medicaments, in particular as antibacterials and beta-lactamase inhibitors” (Novexel, priority 2002, dated 2008)
